Reference: patent publication US5312919A, “Photooxidation products and derivatives thereof of merocyanine-540, their preparation and uses” (priority 1992, dated 1994)
Where two headings read alike, the source gives them in different places.

Experiments:
[1] = test system: H.S. Sultan (multiple myeloma); test: Inhibition of cell proliferation, H.S. Sultan (MTT assay); assay type: cell-based; conditions: 24 hr.
Experimental: (§1) Preactivated MC 540 is abbreviated as pMC 540. […] 52: 831-38 (1990); and T. Mosmann, J. Immulog. Methods 65: 55-63 (1983).
Each cell type (1×10^6 cells/ml; in triplicate) was treated with indicated concentrations of merocil or merodantoin. […] The cytotoxicity in vehicle only (cremophor EL) controls was not detectable at highest dose tested.

[2] = test system: MS 751 (cervix, carcinoma, human); test: Inhibition of cell proliferation, MS 751 (MTT assay); assay type: cell-based; conditions: for inhibition at 1.56 µg/mL / inhibition at 3.13 µg/mL / inhibition at 6.25 µg/mL / inhibition at 12.5 µg/mL: read-out: % inhibition of cell proliferation
Experimental: as §1
(§2) Each cell type (1×10^6 cells/ml; in triplicate) was treated with indicated concentrations of merocil or merodantoin. After overnight (20 hr.) or 5 day incubation periods, the cell viability was determined by MTT assay and calculated as a percentage of untreated controls. The toxicity in vehicle only (cremophor EL) controls was not detectable at highest dose tested.

MT-4 cells = test: Effect on viability of MT-4 cells; assay type: cell-based; conditions: experimental conditions of Table 8
Experimental: Cell free human immunodeficiency virus (HIV-1) was either left untreated or treated with indicated doses of Merocil or Merodantoin for one hour at 37° C. and added to MT-4 target cells. After 4 hour incubation at 37° C., the cells were washed three times and further incubated in drug free fresh growth medium (complete RPMI-1640) at 37° C. for 4 days. On day four, 50% of the culture supernatant was replaced with fresh growth medium to prevent cell death due to possible nutrient depletion. The viability of the cell was determined on day 11 by MTT assay. […] The viability of the MT-4 cells was not affected by Merocil or Merodantoin under the experimental conditions described above.

[3] = test system: BT-20 (breast, adenocarcinoma); test: Inhibition of cell proliferation, BT-20 (MTT assay); assay type: cell-based; conditions: Homo sapiens; for inhibition at 1.56 µg/mL: 1.56 μg/ml; for inhibition at 1.56 µg/mL / inhibition at 3.13 µg/mL / inhibition at 6.25 µg/mL / inhibition at 12.5 µg/mL: read-out: % inhibition of cell proliferation; for inhibition at 3.13 µg/mL: 3.13 μg/ml; for inhibition at 6.25 µg/mL: 6.25 μg/ml; for inhibition at 12.5 µg/mL: 12.5 μg/ml; for inhibition at 25 µg/mL: 25.0 μg/ml
Source text: Preactivated MC 540 is abbreviated as pMC 540. […] 52: 831-38 (1990); and T. Mosmann, J. Immulog. Methods 65: 55-63 (1983). […]

[4] = test system: L1210 mouse leukemia cells; test: Combined effect on L1210 mouse leukemia cells (MTT assay); conditions: MC = 12.5 μg/ml; MD = 25 μg/ml; MZ = 25 μg/ml; overnight
Experimental: The biological activities of the photooxidation products of MC 540 were determined. Preactivated MC 540 is abbreviated as pMC 540. Assays of antitumor activities of the products were carried out according to published standard methods.
Mouse leukemia L1210 cells (1 × 10^6 cells/ml) were treated wit
different combinations of the indicated compounds (isolated from
preactivated merocyanine 540). After overnight incubation the cell kill
was determined by MTT assay.

[5] = test system: C-33A (carcinoma cervix, human); test: Inhibition of cell proliferation, C-33A (MTT assay); assay type: cell-based; conditions: for inhibition at 1.56 µg/mL: 1.56 μg/ml; for inhibition at 1.56 µg/mL / inhibition at 3.13 µg/mL / inhibition at 6.25 µg/mL / inhibition at 12.5 µg/mL: read-out: % inhibition of cell proliferation; for inhibition at 3.13 µg/mL: 3.13 μg/ml; for inhibition at 6.25 µg/mL: 6.25 μg/ml; for inhibition at 12.5 µg/mL: 12.5 μg/ml; for inhibition at 25 µg/mL: 25.0 μg/ml
Experimental: as §1, §2

CCCCN1C(=O)C(=O)N(CCCC)C1=S [Merodantoin, N,N'-Dibutyl-2-thio-4,5-imidazolindion]
inhibition at 1.56 µg/mL ([1]; 1.56 μg/ml, read-out: % inhibition of cell proliferation): 18% | inhibition at 3.13 µg/mL ([1]; 3.13 μg/ml, read-out: % inhibition of cell proliferation): 34% | inhibition at 6.25 µg/mL ([1]; 6.25 μg/ml, read-out: % inhibition of cell proliferation): 54% | inhibition at 12.5 µg/mL ([1]; 12.5 μg/ml, read-out: % inhibition of cell proliferation): 77% | inhibition at 25 µg/mL ([1]; 25.0 μg/ml): 87% | inhibition at 1.56 µg/mL ([2]; MS751, 1.56 μg/ml, 20 hr.): 8% | inhibition at 3.13 µg/mL ([2]; MS751, 3.13 μg/ml, 20 hr.): 24% | inhibition at 6.25 µg/mL ([2]; MS751, 6.25 μg/ml, 20 hr.): 20% | inhibition at 12.5 µg/mL ([2]; MS751, 12.5 μg/ml, 20 hr.): 28% | inhibition at 25 µg/mL ([2]; MS751, 25.0 μg/ml, 20 hr.): 41% | inhibition at 1.56 µg/mL ([2]; MS751, 120 h, 1.56 μg/ml, 5 days): 11% | inhibition at 3.13 µg/mL ([2]; MS751, 120 h, 3.13 μg/ml, 5 days): 23% | inhibition at 6.25 µg/mL ([2]; MS751, 120 h, 6.25 μg/ml, 5 days): 66% | inhibition at 12.5 µg/mL ([2]; MS751, 120 h, 12.5 μg/ml, 5 days): 90% | inhibition at 25 µg/mL ([2]; MS751, 120 h, 25.0 μg/ml, 5 days): 100% | viability of the MT-4 cells (MT-4 cells): not affected | inhibition at 1.56 µg/mL ([3]; BT-20, 96 h, 4 days): 19% | inhibition at 3.13 µg/mL ([3]; BT-20, 96 h, 4 days): 52% | inhibition at 6.25 µg/mL ([3]; BT-20, 96 h, 4 days): 20% | inhibition at 12.5 µg/mL ([3]; BT-20, 96 h, 4 days): 12% | inhibition at 25 µg/mL ([3]; BT-20, 96 h, 4 days): 73% | inhibition at 1.56 µg/mL ([3]; BT-20, 48 hr.): 0% | inhibition at 3.13 µg/mL ([3]; BT-20, 48 hr.): 0% | inhibition at 6.25 µg/mL ([3]; BT-20, 48 hr.): 0% | inhibition at 12.5 µg/mL ([3]; BT-20, 48 hr.): 8% | inhibition at 25 µg/mL ([3]; BT-20, 48 hr.): 26% | % Cell Kill [4]: 64% | inhibition at 1.56 µg/mL ([5]; 20 hr.): 16% | inhibition at 3.13 µg/mL ([5]; 20 hr.): 29% | inhibition at 6.25 µg/mL ([5]; 20 hr.): 36% | inhibition at 12.5 µg/mL ([5]; 20 hr.): 49% | inhibition at 25 µg/mL ([5]; 20 hr.): 56% | inhibition at 1.56 µg/mL ([5]; 120 h, 5 days): 11% | inhibition at 3.13 µg/mL ([5]; 120 h, 5 days): 34% | inhibition at 6.25 µg/mL ([5]; 120 h, 5 days): 86% | inhibition at 12.5 µg/mL ([5]; 120 h, 5 days): 63% | inhibition at 25 µg/mL ([5]; 120 h, 5 days): 91%
